# Assay results: paper PMC2217226 (The Journal of General Physiology, 2000)
# Entries after “also recorded” stand apart in the source; their conditions may differ. Like-named read-outs stand apart in the source and are kept apart here.
# Assays:
# SACs = details: cited from earlier work
# epithelial Na^+ channels = details: no separate reference printed; cited from earlier work
# [1] = system: endogenous SACs in oocytes; details: ref Lane et al., 1991; cited from earlier work
# [2] = system: SACs in audiovestibular hair cells; details: ref Jorgensen and Ohmori 1988; cited from earlier work
# [3] = system: swelling-activated whole-cell current in adult astrocytes; type: cell-based, rat
# [4] = system: swelling-activated anion current in astrocytoma cells; details: ref Bakhramov et al. 1995; cited from earlier work
# [5] = system: SACs (cation-selective stretch-activated channels) in outside-out patches from adult rat astrocytes; assay: SAC activity in outside-out patches, pressure-activated, patch clamp; type: cell-based
# NMDA channel = details: ref Bender et al. 1998; cited from earlier work
# [6] = system: glutamate-stimulated K^+ influx in neonatal astrocytes; details: ref Bender et al. 1998; cited from earlier work
# [7] = system: voltage-sensitive whole-cell currents of astrocytes; assay: Voltage-sensitive whole-cell currents, perforated patch; type: cell-based, rat; details: concentration not printed at place
# [8] = system: ICl,swell (outwardly rectifying Cl^− current), rabbit CHF ventricular myocytes; assay: Swelling-activated anion current in CHF ventricular myocytes, perforated patch; type: cell-based
# [9] = system: ventricular myocytes from rabbits with aortic regurgitation-induced CHF; assay: Myocyte cell volume during perforated patch voltage clamp; type: cell-based, rabbit
# [10] = system: whole-cell current of rabbit CHF ventricular myocytes in 1.5T hypertonic saline; type: cell-based; details: 0.4 μM GsMTx-4, 1.5T hypertonic saline, averages from five cells
# [11] = Overall charge of the toxin; type: physicochemical; details: from the sequence
# [12] = system: rabbit hearts, atrial fibrillation associated with dilatation; details: ref Bode et al. 1999; cited from earlier work
# [13] = system: normal electrical activity of the heart, rabbit; details: Langendorff-perfused rabbit hearts, preliminary; ref Bode et al. 1999; cited from earlier work
# K^+ channel = details: Fig. 8 legend; ref Swartz and MacKinnon 1995; cited from earlier work
# E-type Ca^2+ channels = details: Fig. 8 legend; ref Newcomb et al. 1998; cited from earlier work
# [14] = introduction, ref Hamill and McBride 1996, Sachs and Morris 1998
compound,measurement,setting,value
N=C(N)NC(=O)c1nc(Cl)c(N)nc1N [Amiloride],blocking activity against SACs,SACs; [14],low affinity blocking activity
same,affinity for epithelial Na^+ channels,epithelial Na^+ channels,nanomolar affinity
same,block of endogenous SACs in oocytes,[1],blocks
same,block of SACs in audiovestibular hair cells,[2],blocks
"O=S(=O)(O)c1cc(N=C=S)ccc1C=Cc1ccc(N=C=S)cc1S(=O)(=O)O [DIDS, 4,4′-diisothiocyanatostilbene-2,2′-disulphonic acid, reference compound]",effect on swelling-activated current (in words),"[3]; 50 μM DIDS, 30 s hypotonic saline, especially at depolarized potentials, n = 6",significant reduction in current
same,reduction of swelling-activated anion current,[4],significant reduction
COc1ccc([C@@H]2Sc3ccccc3N(CCN(C)C)C(=O)[C@@H]2OC(C)=O)cc1 [Diltiazem],blocking activity against SACs,SACs; [14],low affinity blocking activity
"N[C@@H](CCC(=O)O)C(=O)O [Glutamate, reference compound]",Activity on astrocyte SACs,"[5]; 10 μM, n = 2 trials, outside-out patches at −50 mV",No activation
same,activation of SACs in unstretched patches,"[5]; 10 μM, unstretched patches that contained SACs",did not activate SACs
C[C@]12N[C@H](Cc3ccccc31)c1ccccc12 [MK801],affinity as NMDA open-channel blocker,NMDA channel,nanomolar affinity
same,effect on glutamate-stimulated K^+ influx,[6],inhibits glutamate-stimulated K^+ influx
"COC(=O)C1=C(C)NC(C)=C(C(=O)OC)C1c1ccccc1[N+](=O)[O-] [Nifedipine, reference compound]",Activity on astrocyte SACs,[5],No block
CC[N+](CC)(CC)CC [tetraethylammonium],blocking activity against SACs,SACs,low affinity blocking activity
GsMTx-4,I/I0 (ratio of blocked to unblocked current),"[5]; from data of Fig. 6, outside-out patches, −50 mV",0.083
same,dissociation rate constant k d,"[5]; from washout time constant, n = 7 patches",0.21 s⁻¹
same,state dependence of block,"[5]; mechanism of action, closed channels",can act on closed channels
same,block of SACs,"[5]; outside-out patches, 1:1,000 dilution, 8 μg/ml, rapid upon superfusion",the block was complete
same,activity against voltage-sensitive whole-cell currents,[7],no effect on whole-cell voltage-sensitive currents; also recorded: did not effect voltage-sensitive currents; also recorded: negligible activity
same,effect on peak swelling-activated current (in words),"[3]; 5 μM GsMTx-4, 30 s after hypotonic exposure",significantly reduced the peak current response
same,reduction in peak swelling-activated current,"[3]; 5 μM GsMTx-4, 30 s, after subtracting resting current, representative cell (Fig. 9 C)",~75%
same,change in reversal potential of swelling-activated current,"[3]; 5 μM GsMTx-4, statistically indistinguishable from 0 mV",+2 mV
same,reduction in swelling-activated anion current,"[3]; adult astrocytes, discussion",40–50%
same,reduction in swelling-activated whole-cell current,"[3]; hypotonically swollen astrocytes, potential not printed at place",~40%
same,recovery of swelling currents after washout,[3]; ∼4 min after washout of 5 μM GsMTx-4,partially recovered
same,"effect on ICl,swell","[8]; 0.4 μM GsMTx-4, isotonic (1.0T), averages from five cells",no effect
same,effect on anion current,"[8]; rabbit dilated cardiomyopathy model, concentration not printed at place",did not affect the anion current
same,cell volume reduction,"[9]; 0.4 μM GsMTx-4, 1.0T solution, averages from five cells",7%
same,cell volume after osmotic shrinkage,"[9]; 0.4 μM GsMTx-4, 1.5T solution, averages from five cells",unaffected
same,cell volume reduction relative to that produced by 1.5T saline,"[9]; 0.4 μM GsMTx-4, isotonic",~40%
same,effect on whole-cell current,[10],unaffected; also recorded: did not affect membrane currents
same,overall charge,[11],+5
same,suppression of cardiac arrhythmias,[12],ability to suppress cardiac arrhythmias
same,effect on normal electrical activity of the heart,[13],doesn't block normal electrical activity of the heart
Hanatoxin,K^+ channel block,K^+ channel,K^+ channel blocker
"SNX-482: peptide toxin that blocks E-type Ca^2+ channels (GVDKAGCRYMFGGCSVNDDCCPRLGCHSLFSYCAWDLTFSD; UniProt P56854 1-41, looked up)",E-type Ca^2+ channel block,E-type Ca^2+ channels,blocks E-type Ca^2+ channels
